Results taken from ChEMBL document CHEMBL1201862, “PubChem BioAssay data set” (2004).
Active and inactive are the calls of the source.

Experiments:
cells [1] = assay: cells
[2] = inhibition of mouse IRAP aminopeptidase activity – biochemical, Leu-AMC fluorescence, cherry-picked samples, set 2, selectivity assay for ERAP1 modulator project, dose response (AID 743340)
H4 = assay: Luminescence Cell-Based Dose Response HTS to Identify Activators of 5'UTR Stem-Loop Driven Prion Protein mRNA Translation in H4 Neuroglioblastoma Cells. [Related pubchem assays: 1829 (Project Summary), 1814 (Primary HTS)]; format: functional; conditions: Homo sapiens
[3] = target: T1, Oxysterols receptor LXR-beta (Homo sapiens, UniProt P55055); format: functional, cell-based
T1 sequence (P55055 whole entry): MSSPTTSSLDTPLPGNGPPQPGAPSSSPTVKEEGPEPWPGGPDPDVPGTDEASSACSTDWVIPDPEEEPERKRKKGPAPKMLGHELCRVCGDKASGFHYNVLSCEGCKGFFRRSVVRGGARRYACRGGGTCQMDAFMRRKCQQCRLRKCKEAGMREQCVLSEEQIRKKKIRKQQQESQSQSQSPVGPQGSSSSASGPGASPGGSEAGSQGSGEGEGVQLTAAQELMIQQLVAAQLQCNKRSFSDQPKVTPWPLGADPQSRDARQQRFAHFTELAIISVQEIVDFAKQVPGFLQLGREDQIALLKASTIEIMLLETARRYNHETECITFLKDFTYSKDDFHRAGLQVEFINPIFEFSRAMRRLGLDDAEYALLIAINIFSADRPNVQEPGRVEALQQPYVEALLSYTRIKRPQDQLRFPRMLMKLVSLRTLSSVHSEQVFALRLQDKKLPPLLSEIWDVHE

[4] = Counterscreen for inhibitors of Trypanosoma brucei methionyl tRNA synthetase (MetRS): Luminescence-based cell-based high throughput dose response assay to identify compounds that are cytotoxic to Jurkat human T lymphocyte cells.; format: functional
[5] = target: T2, Methionyl-tRNA synthetase, putative (Trypanosoma brucei brucei, UniProt Q38C91); format: functional, Trypanosoma brucei brucei strain 927/4 GUTat10.1
T2 sequence (Q38C91 whole entry): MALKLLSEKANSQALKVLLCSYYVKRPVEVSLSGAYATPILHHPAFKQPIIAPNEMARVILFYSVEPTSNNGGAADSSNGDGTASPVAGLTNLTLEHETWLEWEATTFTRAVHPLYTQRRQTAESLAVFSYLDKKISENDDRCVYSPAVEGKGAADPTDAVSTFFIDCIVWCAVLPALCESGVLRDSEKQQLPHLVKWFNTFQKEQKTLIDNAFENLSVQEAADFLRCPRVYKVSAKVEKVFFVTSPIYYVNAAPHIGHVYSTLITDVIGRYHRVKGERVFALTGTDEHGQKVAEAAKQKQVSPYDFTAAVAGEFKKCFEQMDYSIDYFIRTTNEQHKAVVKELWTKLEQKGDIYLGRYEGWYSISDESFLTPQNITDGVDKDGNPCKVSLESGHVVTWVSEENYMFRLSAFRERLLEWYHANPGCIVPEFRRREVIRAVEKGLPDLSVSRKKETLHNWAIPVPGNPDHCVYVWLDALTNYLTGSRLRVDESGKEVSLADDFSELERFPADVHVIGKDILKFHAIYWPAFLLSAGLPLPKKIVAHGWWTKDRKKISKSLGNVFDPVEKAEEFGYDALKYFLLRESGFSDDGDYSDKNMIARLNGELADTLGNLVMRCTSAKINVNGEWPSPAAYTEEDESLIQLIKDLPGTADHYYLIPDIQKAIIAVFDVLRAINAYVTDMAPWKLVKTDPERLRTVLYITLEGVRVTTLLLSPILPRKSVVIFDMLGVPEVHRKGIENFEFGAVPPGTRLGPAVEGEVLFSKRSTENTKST

[6] = target: T2, Methionyl-tRNA synthetase, putative; format: functional, Trypanosoma brucei brucei strain 927/4 GUTat10.1; remark: listed apart in the source
[7] = Late stage counterscreen for inhibitors of Trypanosoma brucei methionyl tRNA synthetase (MetRS): Luminescence-based cell-based high throughput dose response assay to identify compounds that are cytotoxic to Jurkat human T lymphocyte cells.; format: functional
[8] = OVCAR-3 cell viability loss – plate reader, dry powder samples, PAX8 inhibitor project, dose response (AID 743044); format: functional, cell-based
[9] = COV434 cell viability loss – plate reader, dry powder, SA7, cytotoxicity control for PAX8 inhibitor project, dose response (AID 743145); format: functional, cell-based
[10] = OV-90 cell viability loss – plate reader, dry powder, SA8, PAX8 inhibitor project, dose response (AID 743149); format: functional, cell-based
[11] = PAX8-dependent cell viability loss – plate reader, dry powder, dose response (AID 743049); format: functional, cell-based
[12] = OVCAR4 cell viability loss – plate reader, dry powder, SA11, cytotoxicity control for PAX8 inhibitor project, dose response (AID 743150); format: functional, cell-based; conditions: OVCAR-4
[13] = IGROV1 cell killing – plate reader, dry powder samples, PAX8 inhibitor project, dose response (AID 743043); format: functional, cell-based; conditions: IGROV-1
[14] = toxicity toward immortalized ovarian surface epithelium – cell-based, plate reader, dry powder samples, cytotoxicity control for PAX8 inhibitor project, dose response (AID 743045); format: functional
[15] = COV362 cell viability loss – plate reader, dry powder, SA12, cytotoxicity control for PAX8 inhibitor project, dose response (AID 743144); format: functional, cell-based
Fatty acid synthase [16] = target: T3, Fatty acid synthase (Homo sapiens, UniProt P49327); assay: inhibition of human FAS-TE enzyme activity – biochemical, kinetic fluorescence intensity, dose response (AID 624326); format: functional;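 further: rate of fluorescence rise from hydrolysis of a fluorogenic O-methyl fluorescein ester substrate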
T3 sequence (P49327 whole entry): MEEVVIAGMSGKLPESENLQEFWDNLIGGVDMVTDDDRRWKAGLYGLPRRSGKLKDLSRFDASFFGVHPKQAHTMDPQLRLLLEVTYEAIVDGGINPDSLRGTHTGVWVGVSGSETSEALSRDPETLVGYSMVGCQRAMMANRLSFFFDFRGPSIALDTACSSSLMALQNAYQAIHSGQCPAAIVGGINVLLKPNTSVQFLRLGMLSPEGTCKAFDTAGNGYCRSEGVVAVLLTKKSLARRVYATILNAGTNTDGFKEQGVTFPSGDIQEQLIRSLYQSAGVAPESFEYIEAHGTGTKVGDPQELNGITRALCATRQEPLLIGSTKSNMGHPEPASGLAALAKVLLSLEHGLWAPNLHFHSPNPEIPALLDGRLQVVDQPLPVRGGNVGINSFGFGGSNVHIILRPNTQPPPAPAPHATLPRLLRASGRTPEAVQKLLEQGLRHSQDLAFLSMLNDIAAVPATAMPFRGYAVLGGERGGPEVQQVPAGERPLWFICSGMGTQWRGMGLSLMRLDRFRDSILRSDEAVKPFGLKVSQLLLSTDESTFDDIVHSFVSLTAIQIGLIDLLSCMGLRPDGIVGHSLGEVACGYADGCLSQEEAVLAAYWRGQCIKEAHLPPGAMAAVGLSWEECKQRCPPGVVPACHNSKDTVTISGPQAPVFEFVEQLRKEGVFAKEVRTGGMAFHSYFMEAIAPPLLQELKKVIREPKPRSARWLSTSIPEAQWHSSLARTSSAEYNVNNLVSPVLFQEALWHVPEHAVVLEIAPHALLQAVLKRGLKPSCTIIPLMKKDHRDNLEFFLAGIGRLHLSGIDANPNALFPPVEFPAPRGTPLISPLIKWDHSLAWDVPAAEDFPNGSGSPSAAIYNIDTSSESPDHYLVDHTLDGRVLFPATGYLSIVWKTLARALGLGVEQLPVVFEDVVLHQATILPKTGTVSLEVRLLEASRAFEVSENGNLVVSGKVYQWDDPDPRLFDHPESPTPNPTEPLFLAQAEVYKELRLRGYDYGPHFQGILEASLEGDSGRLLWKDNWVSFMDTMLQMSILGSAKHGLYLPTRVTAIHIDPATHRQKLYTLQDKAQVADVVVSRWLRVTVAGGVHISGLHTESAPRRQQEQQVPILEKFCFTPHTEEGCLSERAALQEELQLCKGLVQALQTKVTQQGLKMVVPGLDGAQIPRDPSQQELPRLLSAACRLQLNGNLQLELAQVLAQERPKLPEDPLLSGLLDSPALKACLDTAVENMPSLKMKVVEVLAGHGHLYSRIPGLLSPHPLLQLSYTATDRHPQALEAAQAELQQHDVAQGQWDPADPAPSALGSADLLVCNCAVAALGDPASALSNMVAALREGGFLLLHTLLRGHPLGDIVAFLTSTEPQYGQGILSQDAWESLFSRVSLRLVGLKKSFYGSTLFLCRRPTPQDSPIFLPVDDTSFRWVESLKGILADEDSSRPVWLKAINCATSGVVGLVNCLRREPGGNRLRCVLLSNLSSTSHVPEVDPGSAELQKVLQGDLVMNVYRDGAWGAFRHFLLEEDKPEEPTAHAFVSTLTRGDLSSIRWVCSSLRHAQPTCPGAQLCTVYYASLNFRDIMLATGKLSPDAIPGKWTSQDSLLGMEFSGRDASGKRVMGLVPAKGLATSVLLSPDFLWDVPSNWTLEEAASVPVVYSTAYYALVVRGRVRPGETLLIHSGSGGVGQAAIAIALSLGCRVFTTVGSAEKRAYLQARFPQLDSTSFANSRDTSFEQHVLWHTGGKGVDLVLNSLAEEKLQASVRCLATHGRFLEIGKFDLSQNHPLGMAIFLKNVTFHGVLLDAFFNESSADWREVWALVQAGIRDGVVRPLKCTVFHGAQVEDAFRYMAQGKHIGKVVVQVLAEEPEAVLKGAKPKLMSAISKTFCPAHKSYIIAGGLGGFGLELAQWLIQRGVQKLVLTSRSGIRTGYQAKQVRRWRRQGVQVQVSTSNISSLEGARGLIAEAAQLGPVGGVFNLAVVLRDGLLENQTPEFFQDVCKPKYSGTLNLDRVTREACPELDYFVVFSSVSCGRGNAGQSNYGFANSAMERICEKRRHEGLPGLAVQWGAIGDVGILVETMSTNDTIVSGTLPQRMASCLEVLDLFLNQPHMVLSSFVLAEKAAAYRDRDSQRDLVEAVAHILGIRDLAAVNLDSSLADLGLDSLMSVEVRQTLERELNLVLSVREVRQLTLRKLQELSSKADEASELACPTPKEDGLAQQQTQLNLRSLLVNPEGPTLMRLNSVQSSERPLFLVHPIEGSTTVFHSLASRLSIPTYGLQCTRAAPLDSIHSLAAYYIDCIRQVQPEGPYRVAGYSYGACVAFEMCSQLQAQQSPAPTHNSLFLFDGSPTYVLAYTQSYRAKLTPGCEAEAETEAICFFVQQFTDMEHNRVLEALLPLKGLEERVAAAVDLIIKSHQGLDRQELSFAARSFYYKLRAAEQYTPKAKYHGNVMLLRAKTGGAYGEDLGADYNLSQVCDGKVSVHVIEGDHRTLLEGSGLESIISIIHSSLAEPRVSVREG

[17] = Luminescence-based cell-based high throughput dose response assay to identify activators of the DAF-12 from the parasite S. stercoralis (ssDAF-12).; format: functional
[18] = target: T4, Rac GTPase-activating protein 1 (Homo sapiens, UniProt Q9H0H5); assay: blockers of MgcRacGAP-driven Rac1 GTP hydrolysis – biochemical, ADP Hunter fluorescence, primary and confirmatory, confirmation (AID 624330); format: functional
T4 sequence (Q9H0H5 whole entry): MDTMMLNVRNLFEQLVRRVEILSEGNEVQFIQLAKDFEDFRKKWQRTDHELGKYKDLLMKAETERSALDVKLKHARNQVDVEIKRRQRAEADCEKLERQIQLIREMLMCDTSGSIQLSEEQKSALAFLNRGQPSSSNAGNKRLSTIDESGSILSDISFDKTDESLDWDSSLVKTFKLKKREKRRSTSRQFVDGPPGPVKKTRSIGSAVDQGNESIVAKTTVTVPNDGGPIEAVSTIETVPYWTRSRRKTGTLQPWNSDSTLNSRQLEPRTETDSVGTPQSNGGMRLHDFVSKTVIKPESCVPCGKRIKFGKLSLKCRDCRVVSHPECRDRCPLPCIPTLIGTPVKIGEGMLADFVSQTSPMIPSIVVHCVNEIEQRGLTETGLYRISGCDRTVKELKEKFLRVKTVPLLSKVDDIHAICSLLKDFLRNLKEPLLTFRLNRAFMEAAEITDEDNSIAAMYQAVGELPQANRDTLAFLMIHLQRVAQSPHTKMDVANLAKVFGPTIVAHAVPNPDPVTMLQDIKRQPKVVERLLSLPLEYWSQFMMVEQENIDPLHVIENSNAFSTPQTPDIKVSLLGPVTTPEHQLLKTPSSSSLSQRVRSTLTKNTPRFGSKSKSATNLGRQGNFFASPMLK

[19] = target: T1, Oxysterols receptor LXR-beta; assay: LXR agonists, Gal4 luciferase reporter, dose response, counter-screen for ssDAF-12 agonist project, cell-based, luminescence, HEK293, S. stercoralis campaign (AID 720737); format: functional; conditions: read-out: IC50 (the source's name)
Fatty acid synthase [20] = target: T3, Fatty acid synthase; assay: inhibition of human FAS-TE enzyme activity – biochemical, endpoint fluorescence intensity, uHTS hits, dose response (AID 624327); format: functional;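 further: fluorescence from hydrolysis of an O-methyl fluorescein acyl ester substrate by the enzyme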
[21] = viability loss in HeLa cells – cytotoxicity control for MgcRacGAP inhibitor project, dose response (AID 624300); format: functional
[22] = target: NAD-dependent protein deacylase sirtuin-5, mitochondrial (Homo sapiens, UniProt Q9NXA8); assay: sirtuin-5 deacylation blockers, concentration series – biochemical, fluorescence imaging, cherry-pick, set 5, dose response (AID 720591);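 further: desuccinylation of succinyl peptide AMC substrate read as fluorescence after trypsin release; potency of inhibitors that lower fluorescence and may act on trypsin instead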
Chain of NAD-dependent protein deacylase sirtuin-5, mitochondrial (Q9NXA8 whole entry): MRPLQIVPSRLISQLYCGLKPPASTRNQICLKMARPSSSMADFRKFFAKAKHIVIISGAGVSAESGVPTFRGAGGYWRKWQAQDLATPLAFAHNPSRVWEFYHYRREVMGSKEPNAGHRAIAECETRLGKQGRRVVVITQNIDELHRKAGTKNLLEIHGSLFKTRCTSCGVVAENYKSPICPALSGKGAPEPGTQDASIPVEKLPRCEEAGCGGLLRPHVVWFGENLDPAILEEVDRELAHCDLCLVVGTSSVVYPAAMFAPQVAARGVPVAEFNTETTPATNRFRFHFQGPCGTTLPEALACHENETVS

[23] = target: Endoplasmic reticulum aminopeptidase 1 (Homo sapiens, UniProt Q9NZ08); assay: inhibition of human ERAP1 enzyme activity – biochemical, cherry-pick, set 2, plate reader, dose response (AID 743314)
Chain of Endoplasmic reticulum aminopeptidase 1 (Q9NZ08 whole entry): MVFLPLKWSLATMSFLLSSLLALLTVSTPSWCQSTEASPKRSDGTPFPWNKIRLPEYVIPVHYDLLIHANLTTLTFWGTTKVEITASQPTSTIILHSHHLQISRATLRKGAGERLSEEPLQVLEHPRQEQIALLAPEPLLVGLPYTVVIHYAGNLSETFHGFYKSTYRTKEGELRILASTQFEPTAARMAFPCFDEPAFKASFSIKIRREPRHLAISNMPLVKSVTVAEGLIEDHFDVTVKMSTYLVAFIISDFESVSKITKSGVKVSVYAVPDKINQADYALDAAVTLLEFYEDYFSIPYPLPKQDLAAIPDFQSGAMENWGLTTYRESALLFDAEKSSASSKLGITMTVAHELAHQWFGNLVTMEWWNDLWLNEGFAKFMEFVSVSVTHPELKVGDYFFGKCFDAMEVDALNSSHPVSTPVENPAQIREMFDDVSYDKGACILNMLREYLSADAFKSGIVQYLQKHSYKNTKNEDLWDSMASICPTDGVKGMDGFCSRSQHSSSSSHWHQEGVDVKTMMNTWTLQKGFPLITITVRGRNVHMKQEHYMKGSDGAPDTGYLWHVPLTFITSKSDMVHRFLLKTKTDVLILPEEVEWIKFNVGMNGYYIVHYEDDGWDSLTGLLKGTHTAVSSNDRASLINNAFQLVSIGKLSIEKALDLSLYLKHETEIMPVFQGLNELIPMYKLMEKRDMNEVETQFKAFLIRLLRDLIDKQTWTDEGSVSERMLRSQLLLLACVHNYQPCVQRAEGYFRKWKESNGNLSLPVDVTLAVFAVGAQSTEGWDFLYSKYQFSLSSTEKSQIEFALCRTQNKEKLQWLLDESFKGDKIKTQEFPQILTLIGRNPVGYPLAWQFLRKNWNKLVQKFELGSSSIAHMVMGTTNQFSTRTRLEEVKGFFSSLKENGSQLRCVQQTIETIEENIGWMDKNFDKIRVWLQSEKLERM

[24] = optical artefact potency, substrate without enzyme – biochemical, fluorescence intensity, triplicate, artefact control for kallikrein-7 zymogen activator project, dose response (AID 720493)
Kallikrein-7 = Kallikrein-7 (Homo sapiens, UniProt P49862); assay: Fluorescence Intensity-based biochemical primary high throughput dose response assay to identify activators of kallikrein-7 (K7) zymogen.
Chain of Kallikrein-7 (P49862 whole entry): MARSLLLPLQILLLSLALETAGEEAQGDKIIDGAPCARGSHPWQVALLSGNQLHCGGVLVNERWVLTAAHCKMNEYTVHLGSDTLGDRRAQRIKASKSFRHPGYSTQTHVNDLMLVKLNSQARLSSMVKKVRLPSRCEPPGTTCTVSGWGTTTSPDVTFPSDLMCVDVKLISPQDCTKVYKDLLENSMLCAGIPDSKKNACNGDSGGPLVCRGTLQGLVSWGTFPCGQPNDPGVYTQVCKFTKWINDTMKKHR

cells [25] = assay: cells; remark: listed apart in the source
[26] = target: T1, Oxysterols receptor LXR-beta; format: functional, cell-based; remark: listed apart in the source
[27] = target: T5, High affinity choline transporter 1 (Homo sapiens, UniProt Q9GZV3); assay: inhibition of SLC5A7-mediated choline transport – cell-based, HEK-293 hCHT, [3H]-choline uptake, dose response (AID 652177); format: functional
T5 sequence (Q9GZV3 whole entry): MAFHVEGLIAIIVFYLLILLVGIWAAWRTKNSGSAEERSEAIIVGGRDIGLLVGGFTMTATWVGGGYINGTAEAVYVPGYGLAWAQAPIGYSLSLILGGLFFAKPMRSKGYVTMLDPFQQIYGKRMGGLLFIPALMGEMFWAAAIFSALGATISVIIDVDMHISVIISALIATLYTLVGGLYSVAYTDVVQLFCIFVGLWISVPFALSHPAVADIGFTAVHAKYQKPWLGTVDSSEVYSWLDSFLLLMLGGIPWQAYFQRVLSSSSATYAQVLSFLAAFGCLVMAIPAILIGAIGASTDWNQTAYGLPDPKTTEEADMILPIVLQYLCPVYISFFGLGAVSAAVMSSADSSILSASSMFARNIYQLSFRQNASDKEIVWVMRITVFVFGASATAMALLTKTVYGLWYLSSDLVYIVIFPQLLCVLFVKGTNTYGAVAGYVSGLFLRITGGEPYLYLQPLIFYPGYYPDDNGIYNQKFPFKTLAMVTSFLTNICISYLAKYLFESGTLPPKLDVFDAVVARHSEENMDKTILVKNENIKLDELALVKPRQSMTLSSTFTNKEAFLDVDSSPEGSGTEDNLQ

[28] = viability loss in CEM21 cells – cell-based, plate reader, dry powder, cytotoxicity control, dose response (AID 687026); format: functional
[29] = HIV-1 AD8 envelope cell-cell fusion blockers – cherry-pick, dose response (AID 652062); format: functional, cell-based;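 further: luciferase signal from cell-cell fusion driven by HIV-1 clade B AD8 Env; potency is for inhibitors of fusion seen as a drop in luminescence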
[30] = inhibition of Env-driven cell fusion – HIV entry, plate reader, dry powder, dose response (AID 687023); format: functional, cell-based
[31] = blockers of HIV-1 envelope-mediated cell-cell fusion – cherry-pick, dose response (AID 652057); format: functional, cell-based
[32] = A549 cell cytotoxicity, dose response, cytotoxicity control, plate reader, cherry-pick, antagonist series (AID 743412); format: functional, cell-based
[33] = blockade of melanocortin 4 receptor signaling – cell-based, plate reader, cherry pick, counter-screen for LGR2 antagonist project, dose response (AID 743444); format: functional;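 further: transfected HEK 293 cells stimulated with alpha-MSH peptide; potency of inhibitors of the alpha-MSH evoked signal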
[34] = viability loss in HEK293 cells – cell-based, plate reader, cherry-picked samples, cytotoxicity control, dose response (AID 743446); format: functional
[35] = inhibition of bursicon-driven LGR2 cAMP signaling – cell-based, HEK293, CRE-luciferase reporter, cherry pick, dose response (AID 743342); format: functional

CC12CC(c3ccccc3O1)C(C(=O)OCc1ccccc1)C(=O)N2 (stereo not drawn)
AC50 (cells [1]): 0.151 µM (active)

COc1ccc(CN(C)C[C@@H]2OCCCC[C@@H](C)Oc3ccc(NS(=O)(=O)c4c(C)noc4C)cc3C(=O)N([C@@H](C)CO)C[C@@H]2C)cc1
AC50 [2]: 16.2 µM (active)

COC(=O)C1C(=O)c2c([nH]c(C(=O)OC3CCCCC3)c2C)CC1C (stereo not drawn)
EC50 (H4): 8.72 µM (active)
EC50 [3]: > 67.5 µM (inactive)

COc1cccc(NC(=O)CSc2n[nH]c3c4cc(C)ccc4nc-3n2)c1
IC50 [4]: 83.3 µM (inactive)
IC50 [5]: 0.0483 µM (active)
IC50 [6]: 0.101 µM (active)
IC50 [7]: > 83.3 µM (inactive)

O=C(CCCN1C(=O)/C(=C\c2cccc(Br)c2)SC1=S)Nc1ccccn1
AC50 [8]: 18.9 µM (active)
AC50 [9]: 49.7 µM (active)
AC50 [10]: 36.8 µM (active)
AC50 [11]: 17.6 µM (active)
AC50 [12]: 42.7 µM (active)
AC50 [13]: 14.8 µM (active)
AC50 [14]: 68.5 µM (active)
AC50 [15]: 46.2 µM (active)

CCC(C)n1c(=S)[nH]c2c(sc3ccc([N+](=O)[O-])cc32)c1=O (stereo not drawn)
IC50 (Fatty acid synthase [16]): 15.5 µM (active)
IC50 [17]: > 67.5 µM (inactive)
IC50 [18]: 73.3 µM (active)
EC50 [19]: > 67.5 µM (inactive)
IC50 (Fatty acid synthase [20]): 17.1 µM (active)
CC50 [21]: 100 µM (active)

Cc1cccc(Cn2c(N(C)CCO)nc3c2c(=O)[nH]c(=O)n3C)c1
AC50 [22]: > 30 µM (inactive)

CC(C)(C)c1cc(N2CCOCC2)n2ncc(-c3ccccc3)c2n1
AC50 [23]: 14.2 µM (active)

CC1Nc2ccccc2C(=O)N1NS(C)(=O)=O (stereo not drawn)
EC50 [24]: > 7.73 µM (active)
EC50 (Kallikrein-7): 10.3 µM (inactive)

C/C(=N\Nc1nc2c(s1)CCCC2)c1ccccc1
EC50 (cells [25]): > 67.5 µM (inactive)
EC50 (H4): 5.13 µM (active)
EC50 [26]: > 67.5 µM (inactive)

COc1ccc(C(=O)NCc2csc(C)n2)cc1OC1CCN(C(C)C)CC1
IC50 [27]: 6.18 µM (active)

C[C@@H]1CN([C@H](C)CO)C(=O)c2cccc(NC(=O)C3CCCCC3)c2O[C@H]1CN(C)Cc1ccccc1
AC50 [28]: 31 µM (active)
AC50 [29]: 3.35 µM (active)
AC50 [30]: 8.1 µM (active)
AC50 [31]: 12.1 µM (active)

COc1ccc(S(=O)(=O)N(C)C[C@@H]2OCCCC[C@H](C)Oc3ccc(NS(=O)(=O)c4ccc(Cl)cc4)cc3C(=O)N([C@@H](C)CO)C[C@@H]2C)cc1
AC50 [32]: 5.98 µM (active)
AC50 [33]: 4.58 µM (active)
AC50 [34]: 28.5 µM (active)
AC50 [35]: 3.79 µM (active)
